These are literature values, as cited in paper PMC12084609, “Structural insights into small-molecule agonist recognition and activation of complement receptor C3aR” (The EMBO Journal, 2025).

The target of this data set is C3aR (Homo sapiens, UniProt Q16581). The arrangement: method as in Luo et al, 2025. The conditions noted are these: human monocyte THP-1 cells, naturally express C3aR; ref Luo et al, 2025; cited from earlier work.

SMILES strings stand for the structures.

Sequence of C3aR (Q16581 whole entry): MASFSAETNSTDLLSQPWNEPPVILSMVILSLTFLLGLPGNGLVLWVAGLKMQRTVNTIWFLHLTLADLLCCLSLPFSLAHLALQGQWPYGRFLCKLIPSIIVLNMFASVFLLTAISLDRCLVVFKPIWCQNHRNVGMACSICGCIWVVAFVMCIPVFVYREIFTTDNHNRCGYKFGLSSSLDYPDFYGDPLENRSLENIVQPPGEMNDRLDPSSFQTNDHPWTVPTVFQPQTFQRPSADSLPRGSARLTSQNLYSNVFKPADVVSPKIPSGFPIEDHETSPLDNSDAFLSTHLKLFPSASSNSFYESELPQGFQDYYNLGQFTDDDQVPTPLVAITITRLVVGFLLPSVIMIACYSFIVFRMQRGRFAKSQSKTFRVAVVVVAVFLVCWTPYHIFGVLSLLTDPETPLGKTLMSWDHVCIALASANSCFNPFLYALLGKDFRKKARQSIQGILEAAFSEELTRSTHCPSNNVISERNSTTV
Sequence of C3aR (P63096 2-354 partner limits assumed): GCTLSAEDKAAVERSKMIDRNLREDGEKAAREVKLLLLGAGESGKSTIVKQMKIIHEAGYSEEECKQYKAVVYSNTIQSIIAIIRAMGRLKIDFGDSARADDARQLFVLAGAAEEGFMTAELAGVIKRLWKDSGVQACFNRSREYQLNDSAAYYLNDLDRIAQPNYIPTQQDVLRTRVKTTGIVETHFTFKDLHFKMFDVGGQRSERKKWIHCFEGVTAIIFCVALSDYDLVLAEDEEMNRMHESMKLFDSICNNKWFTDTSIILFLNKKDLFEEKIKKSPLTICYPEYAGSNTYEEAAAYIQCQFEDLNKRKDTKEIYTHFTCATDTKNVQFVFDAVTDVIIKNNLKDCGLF
Sequence of C3aR (P62873 2-340 partner limits assumed): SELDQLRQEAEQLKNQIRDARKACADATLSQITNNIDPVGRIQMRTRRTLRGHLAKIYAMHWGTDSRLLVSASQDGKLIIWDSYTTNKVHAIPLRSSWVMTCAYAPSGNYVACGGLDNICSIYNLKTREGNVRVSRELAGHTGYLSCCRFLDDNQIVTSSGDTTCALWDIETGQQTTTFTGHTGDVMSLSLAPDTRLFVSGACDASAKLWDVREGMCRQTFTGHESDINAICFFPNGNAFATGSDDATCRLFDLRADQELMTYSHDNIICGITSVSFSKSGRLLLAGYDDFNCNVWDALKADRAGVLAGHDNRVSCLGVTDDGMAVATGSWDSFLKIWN
Sequence of C3aR (P59768 2-68 partner limits assumed): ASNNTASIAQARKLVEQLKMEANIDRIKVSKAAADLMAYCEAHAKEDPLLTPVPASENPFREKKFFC

For `Cc1cc(C(c2ccc(Cl)cc2)c2ccc(Cl)cc2)sc1C(=O)N[C@@H](CCCNC(=N)N)C(=O)O` [JR14a, reference compound], the “forskolin-induced cAMP production” value is “inhibited forskolin-induced cAMP production in a dose-dependent manner”.
